Reference: article PMC4548311 (Journal of Biomolecular Structure & Dynamics, 2014)

How the values were obtained:
influenza A virus = conditions: cited from earlier work
R361A mutant NP = R361A mutant NP (Influenza A virus, UniProt P15682, R361A)

Row | SMILES | emergence of resistant virus (influenza A virus) | stabilization of R361A monomers (R361A mutant NP)
1 | CCOC(=O)C1=C[C@@H](OC(CC)CC)[C@H](NC(C)=O)[C@@H](N)C1 [tamiflu] | generated after four passages | 
2 | COc1ccc2cc([C@H](C)C(=O)O)ccc2c1 [Naproxen, naproxen] |  | No stabilization
